Experimental data: US20040048772A1, “Preventives for arthritis” (priority 2001, published 2004)

Key:
[1] = test system: Mice with Type II Collagen-Induced Arthritis; assay: Effect of N-acetylhydroxyproline in mice with type II collagen-induced arthritis (arthritis score, preventive feeding); assay type: in vivo, DBA/1J mice; conditions: for Score of arthritis: mean±SE, N=20, score 0-16 points
From the text: Effect of N-acetylhydroxyproline in Mice with Type II Collagen-Induced Arthritis
It is known that arthritis is induced in DBA/1J mice (Charles River) by administering type II collagen two times.
As the first administration of type II collagen, a solution prepared by mixing an equal amount of type II collagen [Collagen Gijutsu Kenshu-Kai (MCK)] and Freund's complete adjuvant (Iatron) and emulsifying the mixture using a homogenizer was intradermally administered to 6-week old male DBA/1J mice (Charles River) in an amount of 100 μl per one animal.
At day 21 after the first administration of type II collagen, as the second administration of type II collagen, a solution prepared by mixing an equal amount of type II collagen and Freund's complete adjuvant and emulsifying the mixture using a homogenizer in a similar manner was intradermally administered to the animals in an amount of 100 μl per one animal. In this manner, arthritis was induced in mice.
Starting on the day of the first administration of type II collagen, the mice were bred by feeding a powder feed, CE-2 (CLEA Japan), containing the addition of 0.02, 0.1 or 0.5% (hereinafter % refers to wt %) of N-acetylhydroxyproline (Kyowa Hakko Kogyo). As control, a group of mice were fed with the powder feed CE-2 containing no additive. At days 23, 27, 30, 33, 36, 40 and 42 after the first administration of type II collagen, the extent of the onset of arthritis was scored according to the following indices.
Scoring was carried out by applying 0-4 points with respect to […] of mice: 0: no symptom; 1: swelling of one finger or swelling (slight) of ankles; 2: swelling of 1-3 fingers or swelling of ankles; 3: swelling of 3-5 fingers plus swelling of ankles; and 4: swelling of all the fingers plus swelling of ankles. Each mouse was scored the total of the points of 4 paws, namely, 0-16 points. Twenty mice each were subjected to observation with respect to each of the conditions.
In the table, the figures show the score under different treatment conditions, which is given as mean±SE (N=20).
In the table, “no treatment” means no treatment with type II collagen.

[2] = test system: systemic injury of ear and tail; chondral injury at joints; conditions: in vivo; cited from earlier work
[3] = test system: animal model for arthritis; conditions: administration after induction of arthritis; cited from earlier work

## CC(=O)N1C[C@H](O)C[C@H]1C(=O)O [N-Acetylhydroxyproline, N-acetylhydroxyproline]
[1]; 0.02% in powder feed CE-2
  Rising of the score of arthritis compared with feed containing no additive: suppressive tendency
[1]; 0.02% in powder feed CE-2, day 23
  Score of arthritis: 0.0 ± 0.0
[1]; 0.02% in powder feed CE-2, day 27
  Score of arthritis: 4.2 ± 0.8
[1]; 0.02% in powder feed CE-2, day 30
  Score of arthritis: 7.6 ± 0.9
[1]; 0.02% in powder feed CE-2, day 33
  Score of arthritis: 9.3 ± 0.8
[1]; 0.02% in powder feed CE-2, day 36
  Score of arthritis: 9.7 ± 0.9
[1]; 0.02% in powder feed CE-2, day 40
  Score of arthritis: 10.0 ± 0.8
[1]; 0.02% in powder feed CE-2, day 42
  Score of arthritis: 10.1 ± 0.9
[1]; 0.02% in powder feed CE-2 from first collagen administration, day 0
  Score of arthritis: 0.0 ± 0.0
[1]; 0.1% in powder feed CE-2
  Rising of the score of arthritis compared with feed containing no additive: suppressive tendency
[1]; 0.1% in powder feed CE-2, day 23
  Score of arthritis: 0.1 ± 0.1
[1]; 0.1% in powder feed CE-2, day 27
  Score of arthritis: 4.6 ± 0.9
[1]; 0.1% in powder feed CE-2, day 30
  Score of arthritis: 7.3 ± 1.0
[1]; 0.1% in powder feed CE-2, day 33
  Score of arthritis: 8.3 ± 1.1
[1]; 0.1% in powder feed CE-2, day 36
  Score of arthritis: 8.6 ± 1.0
[1]; 0.1% in powder feed CE-2, day 40
  Score of arthritis: 8.5 ± 1.0
[1]; 0.1% in powder feed CE-2, day 42
  Score of arthritis: 8.7 ± 1.0
[1]; 0.1% in powder feed CE-2 from first collagen administration, day 0
  Score of arthritis: 0.0 ± 0.0
[1]; 0.5% in powder feed CE-2
  Scores of arthritis compared with control (feed containing no addition): significantly low
[1]; 0.5% in powder feed CE-2, day 23
  Score of arthritis: 0.0 ± 0.0
[1]; 0.5% in powder feed CE-2, day 27
  Score of arthritis: 3.8 ± 0.7
[1]; 0.5% in powder feed CE-2, day 30
  Score of arthritis: 5.9 ± 0.9
[1]; 0.5% in powder feed CE-2, day 33
  Score of arthritis: 7.7 ± 0.8
[1]; 0.5% in powder feed CE-2, day 36
  Score of arthritis: 8.1 ± 0.8
[1]; 0.5% in powder feed CE-2, day 40
  Score of arthritis: 8.4 ± 0.7
[1]; 0.5% in powder feed CE-2, day 42
  Score of arthritis: 8.5 ± 0.7
[1]; 0.5% in powder feed CE-2 from first collagen administration, day 0
  Score of arthritis: 0.0 ± 0.0
[1]; taken previously, before the onset of arthritis
  Onset of arthritis: could be suppressed
[2]
  Effect on chondral injury at joints: no effect
  Effect on systemic injury of ear and tail: shows a therapeutic effect
[3]
  Aggravation of arthritis: can prevent aggravation of arthritis
